Test system: MDA-MB-468 complex spheroids with HUVEC/MSC, viability
Experiment: Anticancer human tumor MDA-MB-468 cell line growth inhibition;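 also: spheroids exposed to agents for seven days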;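 as to viability, T/C: 100% = DMSO vehicle control viability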
Settings: for IC50: curve of first compound; for viability, T/C: stronger effect = lower value
Summary of the method: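 Drug combinations with the LSD1 inhibitor iadademstat tested on tumor cells co-cultured as spheroids with endothelial cells and mesenchymal stem cells. Concentrations descended in half-log increments from clinical Cmax or 10 microM.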

[1] = second compound 0.1 µM, first compound 0.000316 µM
[2] = second compound 0.1 µM, first compound 0.001 µM
[3] = second compound 0.1 µM, first compound 0.00316 µM
[4] = second compound 0.1 µM, first compound 0.01 µM
[5] = second compound 0.1 µM, first compound 0.0316 µM
[6] = second compound 0.1 µM, first compound 0.1 µM
[7] = second compound 0.316 µM, first compound 0.000316 µM
[8] = second compound 0.316 µM, first compound 0.001 µM
[9] = second compound 0.316 µM, first compound 0.00316 µM
[10] = second compound 0.316 µM, first compound 0.01 µM
[11] = second compound 0.316 µM, first compound 0.0316 µM
[12] = second compound 0.316 µM, first compound 0.1 µM
[13] = second compound 1 µM, first compound 0.000316 µM
[14] = second compound 1 µM, first compound 0.001 µM
[15] = second compound 1 µM, first compound 0.00316 µM
[16] = second compound 1 µM, first compound 0.01 µM
[17] = second compound 1 µM, first compound 0.0316 µM
[18] = second compound 1 µM, first compound 0.1 µM
[19] = second compound 3.16 µM, first compound 0.000316 µM
[20] = second compound 3.16 µM, first compound 0.001 µM
[21] = second compound 3.16 µM, first compound 0.00316 µM
[22] = second compound 3.16 µM, first compound 0.01 µM
[23] = second compound 3.16 µM, first compound 0.0316 µM
[24] = second compound 3.16 µM, first compound 0.1 µM
[25] = second compound 10 µM, first compound 0.000316 µM
[26] = second compound 10 µM, first compound 0.001 µM
[27] = second compound 10 µM, first compound 0.00316 µM
[28] = second compound 10 µM, first compound 0.01 µM
[29] = second compound 10 µM, first compound 0.0316 µM
[30] = second compound 10 µM, first compound 0.1 µM

Compound | IC50 (second compound 0.1 µM) [nM] | IC50 (second compound 0.316 µM) [nM] | IC50 (second compound 1 µM) [nM] | IC50 (second compound 3.16 µM) [nM] | IC50 (second compound 10 µM) [nM] | viability, T/C [3] [%] | viability, T/C [4] [%] | viability, T/C [5] [%] | viability, T/C [6] [%] | viability, T/C [9] [%] | viability, T/C [10] [%] | viability, T/C [11] [%] | viability, T/C [12] [%] | viability, T/C [15] [%] | viability, T/C [16] [%] | viability, T/C [17] [%] | viability, T/C [18] [%] | viability, T/C [21] [%] | viability, T/C [22] [%] | viability, T/C [23] [%] | further results
CC(C)CC(NC(=O)C(Cc1ccccc1)NC(=O)c1cnccn1)B(O)O (stereo not given) + NC1CCC(NC2CC2c2ccccc2)CC1 | 0.699 | 0.592 | 0.642 | 0.646 | 0.562 | 1.52 | 0.94 | 1.06 | 1.23 | 0.94 | 1.12 | 1 | 0.68 | 0.63 | 1.08 | 1.55 | 0.88 | 1.11 | 1 | 0.77 | viability, T/C [1]: 102%; viability, T/C [2]: 26.4%; viability, T/C [7]: 86.6%; viability, T/C [8]: 19.5%; viability, T/C [13]: 94.1%; viability, T/C [14]: 22.2%; viability, T/C [19]: 91.9%; viability, T/C [20]: 24.5%; viability, T/C [24]: 1.37%; viability, T/C [25]: 83.9%; viability, T/C [26]: 16.1%; viability, T/C [27]: 1.08%; viability, T/C [28]: 0.25%; viability, T/C [29]: 1.63%; viability, T/C [30]: 2.35%
CC(C)CC(NC(=O)CNC(=O)c1cc(Cl)ccc1Cl)B1OC(=O)CC(CC(=O)O)(C(=O)O)O1 (stereo not given) + NC1CCC(NC2CC2c2ccccc2)CC1 | 3.9 | 3.97 | 3.33 | 4.4 | 2.99 | 59.5 | 8.34 | 1.37 | 1.7 | 60.4 | 7.32 | 2.63 | 1.14 | 52.1 | 9.33 | 1.32 | 1.76 | 67 | 7.42 | 1.53 | viability, T/C [1]: 110%; viability, T/C [2]: 115%; viability, T/C [7]: 98.6%; viability, T/C [8]: 99.2%; viability, T/C [13]: 89.9%; viability, T/C [14]: 118%; viability, T/C [19]: 72.7%; viability, T/C [20]: 101%; viability, T/C [24]: 1.59%; viability, T/C [25]: 80.6%; viability, T/C [26]: 65.4%; viability, T/C [27]: 50.3%; viability, T/C [28]: 4.74%; viability, T/C [29]: 2.13%; viability, T/C [30]: 2.15%
COc1cc(Nc2ncc3c(n2)-c2ccc(Cl)cc2C(c2c(F)cccc2OC)=NC3)ccc1C(=O)O + NC1CCC(NC2CC2c2ccccc2)CC1 | 5.48 | 5.74 | 5.62 | 4.4 | 4.25 | 67.1 | 31 | 15.9 | 7.27 | 70.7 | 30.2 | 16.6 | 8.6 | 69 | 29.8 | 17.8 | 8.46 | 57.8 | 30.5 | 19.4 | viability, T/C (second compound 0.1 µM, first compound 0.316 µM): 7.36%; viability, T/C (second compound 0.1 µM, first compound 1 µM): 6.36%; viability, T/C (second compound 0.316 µM, first compound 0.316 µM): 7.02%; viability, T/C (second compound 0.316 µM, first compound 1 µM): 7.03%; viability, T/C (second compound 1 µM, first compound 0.316 µM): 6.49%; viability, T/C (second compound 1 µM, first compound 1 µM): 7.09%; viability, T/C [24]: 9.33%; viability, T/C (second compound 3.16 µM, first compound 0.316 µM): 7.94%; viability, T/C (second compound 3.16 µM, first compound 1 µM): 6.66%; viability, T/C [27]: 57.7%; viability, T/C [28]: 28%; viability, T/C [29]: 19.1%; viability, T/C [30]: 11.6%; viability, T/C (second compound 10 µM, first compound 0.316 µM): 8.23%; viability, T/C (second compound 10 µM, first compound 1 µM): 9.73%

Reference: PubChem BioAssay AID1918954 (Molecular Pharmacology Branch, DTP, NCI, 2023)
